We go through twelve compounds from patent US20230159469A1, “NOVEL PHTHALAZINE DERIVATIVE HAVING ECTONUCLOEOTIDE PYROPHOSPHATASE/PHOSPHODIESTE RASE INHIBITORY ACTIVITY, AND USE THEREOF” (TXINNO BIOSCIENCE INC., priority 2020, published 2023).

Where a name gives a salt, the structure may show the parent alone.

The assay has as its target T1, human recombinant ENPP1 (Homo sapiens, UniProt P22413).
T1 construct: purchased R & D systems
T1 sequence (P22413 1-925): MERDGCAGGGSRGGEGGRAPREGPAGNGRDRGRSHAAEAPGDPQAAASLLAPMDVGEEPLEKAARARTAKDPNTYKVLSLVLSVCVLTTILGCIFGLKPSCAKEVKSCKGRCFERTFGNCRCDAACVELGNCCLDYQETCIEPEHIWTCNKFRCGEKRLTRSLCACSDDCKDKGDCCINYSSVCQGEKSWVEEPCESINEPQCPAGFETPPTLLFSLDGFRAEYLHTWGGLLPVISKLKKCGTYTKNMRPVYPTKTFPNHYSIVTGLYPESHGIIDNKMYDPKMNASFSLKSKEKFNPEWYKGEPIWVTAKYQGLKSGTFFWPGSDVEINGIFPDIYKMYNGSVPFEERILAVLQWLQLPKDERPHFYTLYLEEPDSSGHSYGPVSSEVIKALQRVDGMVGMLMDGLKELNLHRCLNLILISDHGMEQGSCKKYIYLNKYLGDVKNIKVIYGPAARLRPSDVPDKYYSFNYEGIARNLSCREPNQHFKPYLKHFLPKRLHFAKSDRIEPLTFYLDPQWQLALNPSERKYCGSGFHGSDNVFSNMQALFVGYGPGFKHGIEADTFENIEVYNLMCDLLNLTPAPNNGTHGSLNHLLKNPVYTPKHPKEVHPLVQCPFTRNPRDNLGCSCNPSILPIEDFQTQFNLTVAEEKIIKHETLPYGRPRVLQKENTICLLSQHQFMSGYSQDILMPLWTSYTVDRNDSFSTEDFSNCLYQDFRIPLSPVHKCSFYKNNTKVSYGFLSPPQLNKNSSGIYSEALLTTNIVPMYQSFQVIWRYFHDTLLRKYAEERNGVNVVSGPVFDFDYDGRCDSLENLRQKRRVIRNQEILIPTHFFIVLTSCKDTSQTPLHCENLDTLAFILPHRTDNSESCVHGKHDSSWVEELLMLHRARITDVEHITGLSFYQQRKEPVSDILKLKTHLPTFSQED
Put plainly: ENPP1 enzyme assay with cGAMP substrate (AMP-Glo luminescence). Conditions: human recombinant ENPP1 3 ng/reaction, cGAMP 5 μM, 37° C. 90 minutes, read-out: Enzymatic activity (ENPP1 IC50). It is filed as biochemical. The gist of the method: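 Human ENPP1 hydrolysis of 5 μM cGAMP was run for 90 min at 37° C in 50 mM Tris pH 8.5, 250 mM NaCl, 0.5 mM CaCl2, 1 μM ZnCl2, 5% glycerol, 1% DMSO. AMP product was quantified by AMP-Glo luminescence; IC50 came from 3-parameter fits of % residual activity, averaged over at least two runs.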
As for `NS(=O)(=O)Nc1ccc(Cc2n[nH]c(=O)c3ccccc23)c(C(F)(F)F)c1` [Example 191, N-(3-(trifluorobenzylmethyl)-4-((4-oxo-3,4-dihydrophthalazin-1-yl)methyl)phenyl)sulfamide hydrochloride], the IC50 is under 1 µM.
The result for `NS(=O)(=O)Nc1ccc(Cc2n[nH]c(=O)c3ccccc23)cc1C(F)(F)F` [Example 192, N-(2-(trifluorobenzylmethyl)-4-((4-oxo-3,4-dihydrophthalazin-1-yl)methyl)phenyl)sulfamide hydrochloride] reads under 1 µM; that for `COc1cc2c(Cc3cccc(Br)c3)n[nH]c(=O)c2cc1OC` [Example 193], over 10 µM; that for `COc1cc2c(Cc3ccc(Br)cc3)n[nH]c(=O)c2cc1OC` [Example 194, 4-(4-bromobenzyl)-6,7-dimethoxyphthalazin-1(2H)-one], over 10 µM.
The result for `CS(=O)(=O)NCc1ccc(-c2n[nH]c(=O)c3ccccc23)cc1` [Example 195, N-(4-(4-oxo-3,4-dihydrophthalazin-1-yl)benzyl)methanesulfonamide] reads over 10 µM; that for `O=c1[nH]nc(-c2ccc(CNS(=O)(=O)C3CC3)cc2)c2ccccc12` [Example 196, N -(4-(4-oxo-3,4-dihydrophthalazin-1-yl)benzyl)cyclopropanesulfonamide], over 10 µM.
The result for `Cc1ccc(S(=O)(=O)NCc2ccc(-c3n[nH]c(=O)c4ccccc34)cc2)cc1` [Example 197, 4-methyl-N-(4-(4-oxo-3,4-dihydrophthalazin-1-yl)benzyl)benzenesulfonamide] reads over 10 µM; that for `O=c1[nH]nc(-c2ccc(CNS(=O)(=O)c3cccs3)cc2)c2ccccc12` [Example 198, N-(4-(4-oxo-3,4-dihydrophthalazin-1-yl)benzyl)thiophene-2-sulfonamide], over 10 µM.
On to `CNS(=O)(=O)Cc1ccc(-c2nn(C)c(=O)c3ccccc23)cc1` [Example 200, N methyl-1-(4-(3-methyl-4-oxo-3,4-dihydrophthalazin-1-yl)phenyl)methanesulfonamide], for which the IC50 was over 10 µM.
The result for `Cn1nc(-c2ccc(CS(=O)(=O)N3CCOCC3)cc2)c2ccccc2c1=O` [Example 201, 2-methyl-4-(4-((morpholinosulfonyl)methyl)phenyl)phthalazin-1 (2H)-one] reads over 10 µM; that for `Cn1nc(-c2ccc(CCS(N)(=O)=O)cc2)c2ccccc2c1=O` [Example 202, 2-(4-(3-methyl-4-oxo-3,4-dihydrophthalazin-1-yl)phenyl)ethane-1-sulfonamide], 1 to 10 µM; that for `COc1cc2c(-c3ccc(CN)c(C(F)(F)F)c3)n[nH]c(=O)c2cc1OC` [Example 203, 4-(4-(aminomethyl)-3-(trifluoromethyl)phenyl-6,7-dimethoxyphthalazin-1(2.8)-one hydrochloride], over 10 µM.
